Measured values published in patent US20190184069A1, “ANTIMICROBIAL COMPOSITIONS COMPRISING MINOCYCLINE AND DEGRADATION PRODUCTS OF OXIDIZED CELLULOSE” (Omrix Biopharmaceuticals Ltd., priority 2017, published 2019).
Entries after “also recorded” stand apart in the source; their conditions may differ.

Tests used:
S. aureus [1] = experiment: Tertiary stage: antimicrobial activity (ET50/MIC) of extract of degradation products of antibiotic-impregnated ORC pads, single or combination; assay type: cell-based, Staphylococcus aureus; settings: impregnated on ORC pad together with 1.26 ng/ml minocycline
Method: Solutions comprising different concentrations of antibiotics to be tested were prepared in methanol.
Blank ORC pads of dimensions 1×1.5 inch, weighing between 65-75 mg (70 mg on average), in duplicate, were immersed in the antibiotic solutions and then dried using a rotary evaporator to provide extract of degradation products of antibiotic-impregnated ORC pads.
15 ml test tubes containing 3 ml of sterile PBS were prepared, and the antibiotic-impregnated ORC pads were immersed in the tubes and incubated for 3-5 hours at ambient temperature on a roller mixer (Stuart, Cat#SRT9D).
Each of the above extracts was filtered out using a sterile 0.8/0.2 μm syringe filter into a clean 15 ml tube. These extraction fluids are referred to herein as “extract of degradation products of antibiotic-impregnated ORC”.
Briefly, ORC pads weighing on average 70 mg each were impregnated with the selected antibiotic. Extracts of degradation products of antibiotic-impregnated ORC were prepared by immersion and incubation in 3 ml of sterile PBS for 3 hours at ambient temperature. The ORC degeneration products were then removed, and any remaining ORC particles were filtered out using a […] syringe filter. This extraction fluid was then diluted 10-fold into Muller Hinton growth medium containing bacteria. Bacterial growth was monitored every 20 min for a total of 18 hours according to optical density (OD) at 600 nm, using an ELISA reader.
Since the study included many possible combinations of two antibiotics, each with their own different concentration range, a matrix of possible antibiotic concentrations was designed, and degradation products of ORC were prepared accordingly (see Table 10). Since all the possible combinations could not be fitted into one 96 well plate, a series of MIC experiments were carried out.

S. aureus [2] = experiment: Primary stage MIC measurement of antibiotic alone (OD 600 nm growth curves, 18 h); assay type: cell-based, Staphylococcus aureus
Description: The following day, the turbidity of the actively-growing broth culture was adjusted with Calcium-adjusted Mueller Hinton broth II (MHBII) to be equivalent to that of a 0.5 McFarland standard (1×10^8 CFU/ml). The broth culture was maintained under ambient conditions prior to use.
The method used in this stage was based on the classic Minimum Inhibitory Concentration (MIC) measurements, as described by the Clinical and Laboratory Standards Institute (CLSI) document M07-A9: “Method for Dilution Antimicrobial Susceptibility Test for Bacteria that Grow Aerobically”. While classic MIC measurements require visual inspection of plates for bacterial growth after 18 hours, growth was monitored in the present study according to optical density (OD) at 600 nm, using an ELISA reader (MultiSkan™ FC ELISA reader, Thermo Fisher Scientific, Massachusetts, USA), thereby obtaining bacterial growth curves for tested antibiotic solutions.
Columns 1 and 3-12: 100 μl of MHBII alone was added to each well.
[…]: 200 μl of a solution of antibiotic in MHBII at the highest concentration to be tested was added to each well.
A series of 2-fold dilutions was performed, wherein 100 μl of solution of antibiotic was withdrawn from each well of column 2, transferred to the corresponding well of column 3, and mixed.
The dilution was then repeated by transfer from column 3 to column 4, and so on, until column 11, when the 100 μl of solution of antibiotic withdrawn from each well of column 11 was discarded.
(§1) The 5×10^6 CFU/ml stock suspension which had been prepared in advance was transferred into a reservoir and 10 μl of the stock suspension were added into each well of columns 2-11 using a multichannel pipette to obtain a final 5×10^5 CFU/ml suspension.
The plate was then incubated at 37° C. with shaking in the ELISA reader and the optical density at 600 nm was read every 20 minutes for a total of 18 hours.
The average OD reading obtained for each antibiotic concentration was calculated and plotted against time to obtain a growth curve.
The MIC was determined as the first antibiotic concentration at which […] by the end of the 18-hour period.

S. aureus [3] = experiment: Secondary stage: bacterial growth (ET50/MIC) of antibiotics with or without extract of degradation products of ORC; assay type: cell-based, Staphylococcus aureus; settings: for Effect of addition of degradation products of ORC on the antibiotic activity: antibiotic with versus without ORC degradation products
Description: ORC pads which had not been impregnated with antibiotic (referred to herein as “blank ORC pads”), were subjected to extraction and degradation in PBS for three hours at ambient temperature. Extract obtained from these blank ORC pads is referred to herein as “blank extract of degradation products of ORC”.
Blank ORC pads were subjected to extraction and degradation in a solution of antibiotic in PBS. Extracts of degradation products obtained from blank ORC pads in a solution of antibiotic in PBS is referred to herein as “extracts of degradation products of blank ORC in antibiotic”.
Due to the acidity of ORC, which provides some antibiotic effect, the size of the pad used was small i.e. approximately 1×1.5 inch, weighing between 65-75 mg (70 mg on average) in order to prevent the ORC from affecting the final pH of the assay and therefore the growth of the bacteria.
15 ml tubes, each containing 3 ml of an antibiotic solution at a known concentration in sterile PBS, were prepared in duplicate.
Blank ORC pads were subjected to extraction and degradation in the antibiotic solution by immersing the ORC pads in the antibiotic solution for 3-5 hours at ambient temperature on a roller mixer (Stuart, Cat#SRT9D).
Blank extract of degradation products of ORC and extract in antibiotic of degradation products of ORC, prepared as described above, were diluted 10 folds in MHBII in sterile 15 ml capped tubes.
as §1
Columns 3 to 6, rows B to F, were filled with the Blank ORC extracted in antibiotic at decreasing concentrations 1 to 5, diluted 10 folds in MHBII. Each sample tested was placed in 4 well repeats for statistical results.
Columns 7 to 10, rows B to F, were filled with the antibiotic solution (AB) at decreasing concentrations 1 to 5, diluted 10 folds in MHBII. Each sample tested was placed in 4 well repeats for statistical results.
Columns 3 to 6, row G, were filled with the blank extract of degradation products of ORC (PBS-ORC) diluted 10 folds in MHBII.
The plate was incubated at 37° C. with shaking in the ELISA reader and the optical density at 600 nm was read every 20 minutes for a total of 18 hours.
The average and standard deviation for OD readings was calculated for each time point of the wells using Excel. The average values were plotted against time to obtain a graph of the bacterial growth curves in the presence of each of the antibiotics tested.
In some cases, the average OD was plotted for a single endpoint of 800 minutes for the various antibiotic treatments and controls.
The average values were also entered into the GraphPad Prism program (GraphPad Software Inc., CA, USA) in order to calculate the Effective Time 50 (ET50) i.e. the time, in minutes, required for the antibiotic to induce a response halfway between the baseline and maximum, where the maximum is the bacterial growth in MHBII with PBS. This provides a quantifiable measure of the efficacy of the antibiotics tested and enables comparison of the various samples tested.

S. aureus [4] = settings: cited from earlier work

In the case of `CCC[C@@H]1C[C@@H](C(=O)N[C@@H]([C@H]2O[C@H](SC)[C@H](O)[C@@H](O)[C@H]2O)[C@H](C)Cl)N(C)C1` [Clindamycin, clindamycin], the “Clindamycin level sufficient for growth inhibition of S. aureus in combination” value (S. aureus [1]) is reported as 8.9 ng/mL, the “MIC as single antibiotics in the absence of ORC (first stage MIC results)” value (S. aureus [2]) is reported as 0.062 µg/mL and the “Effect of addition of degradation products of ORC on the antibiotic activity” value (shortened to “Effect”) (S. aureus [3]) is reported as “no effect”.

For `CN(C)[C@@H]1C(O)=C(C(N)=O)C(=O)[C@@]2(O)C(O)=C3C(=O)c4c(O)cccc4[C@@](C)(O)[C@H]3C[C@@H]12` [Tetracycline], the “Effect” value (S. aureus [3]) was “no effect”, the ET50 (S. aureus [3]; tetracycline 0.025 μg/ml, +ORC degradation products) was 517.7 min and the ET50 (S. aureus [3]; tetracycline 0.025 μg/ml, −ORC) was 531.1 min. The ET50 (S. aureus [3]; tetracycline 0.05 μg/ml, +ORC degradation products) was 741.1 min, the ET50 (S. aureus [3]; tetracycline 0.05 μg/ml, −ORC) was 989.9 min and the ET50 (S. aureus [3]; tetracycline 0.1 μg/ml, +ORC degradation products) was 1470 min. It also gave an ET50 (S. aureus [3]; tetracycline 0.1 μg/ml, −ORC) of 1889 min, an ET50 (S. aureus [3]; tetracycline 0.2 μg/ml, +ORC degradation products) of over 2000 min and an ET50 (S. aureus [3]; tetracycline 0.2 μg/ml, −ORC) of over 2000 min. For the same compound, the ET50 (S. aureus [3]; tetracycline 0.4 μg/ml, +ORC degradation products) was over 2000 min and the ET50 (S. aureus [3]; tetracycline 0.4 μg/ml, −ORC) was over 2000 min.

For Gentamycin [Gentamicin], the “MIC values for S. aureus according to the literature” value (S. aureus [4]) is listed as 0.12 to 1 µg/mL, the “MIC values found in the present study (primary stage, Example 1)” value (S. aureus [2]; antibiotic alone, no ORC) is listed as 0.25 µg/mL and the “Effect” value (S. aureus [3]) is listed as “reduction in the antibiotic activity; also recorded: decreased antibiotic activity; also recorded: lowering of the antibiotic activity; also recorded: impaired”. For the same compound, the ET50 (S. aureus [3]; gentamycin 0.1 μg/ml, +ORC degradation products) was 423.7 min, the ET50 (S. aureus [3]; gentamycin 0.1 μg/ml, −ORC) was 509.4 min and the ET50 (S. aureus [3]; gentamycin 0.3 μg/ml, +ORC degradation products) was 429.3 min. For the same compound, the ET50 (S. aureus [3]; gentamycin 0.3 μg/ml, −ORC) was 1360 min, the ET50 (S. aureus [3]; gentamycin 0.5 μg/ml, +ORC degradation products) was 423.1 min and the ET50 (S. aureus [3]; gentamycin 0.8 μg/ml, +ORC degradation products) was 422.7 min. For the same compound, the ET50 (S. aureus [3]; gentamycin 1 μg/ml, +ORC degradation products) was 446.6 min.
